From US20260378560A1, “APPROACHES TO DESIGNING AND PERFORMING COMPRESSED BIOLOGICAL EXPERIMENTS AND SYSTEMS FOR IMPLEMENTING THE SAME” (EXVIVO LABS INC., priority 2023, published 2026)

Assays:
MOLT-4 = test: Cell viability (CellTiter Glo), compressed perturbation pools with informed pool design, MAX-based deconvolution, MOLT-4; settings: for DRS: MOLT-4, None (measured individually), informed pool design table; for DRS from MAX-based deconvolution: MOLT-4, Samples, 7 Pick 3 informed perturbation pools; for DRS, MOLT-4, MAX: compressed perturbation pools, informed pool design, MAX-based deconvolution;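 as to DRS from MAX-based deconvolution: higher DRS means a larger drug effect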
Outline: (§1)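 Drugs dosed from 1 nM to 10 μM with ATP-luminescence viability, giving a DRS per drug. Pools designed by drug class, with same-class drugs in separate cohorts and clinically toxic pairs kept apart.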

REH [1] = test: Cell viability (CellTiter Glo), compressed perturbation pools with informed pool design, MAX-based deconvolution, REH; settings: REH; for DRS: None (measured individually), informed pool design table; for DRS from MAX-based deconvolution: Samples, 7 Pick 3 informed perturbation pools; for DRS, REH, MAX: compressed perturbation pools, informed pool design, MAX-based deconvolution;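 as to DRS from MAX-based deconvolution: higher DRS means a larger drug effect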
Outline: as §1

REH [2] = test: Cell viability (CellTiter Glo), compressed perturbation pools with informed pool design, SUM-based deconvolution, REH; set-up: scale not given here
Description: Total cell viability was measured for each sample using an ATP-based luminescence assay (i.e., CellTiter Glo). Each cancer drug was then screened at multiple concentrations ranging from one nM to ten μM in order to generate a dose-response curve and calculate a DRS for each cancer cell line.
Each cancer drug was cultured with target cells individually. At the end of the screen, samples were either analyzed individually or compressed into pools for analysis. The library was compressed alphabetically into ten cohorts, each of which contained seven cancer drugs present in three out of the seven pools, as shown in Table VII. Said another way, the screening platform 210 generated a “7 pick 3” compressed library by assigning the cancer drugs among different pools. […] The library was also compressed into ten cohorts with pools designed based on information known about each cancer drug, as shown in Table VIII. After cell viability measurement and DRS calculation, the DRS of each cancer drug in the samples generated based on the pools were deconvoluted and compared to the DRS for each cancer drug measured individually.
In parallel to the exemplary sample compression screen covered in Table VII, perturbations were compressed into pools and then screened. The pools were designed using drug class as a feature with two compression rules (or simply “rules”). The first rule required that drugs from the same class be separated into different cohorts (i.e., mutually exclusive groups of pools). The second rule separated PI3K pathway inhibitors from MAPK pathway inhibitors, as inhibiting these pathways in parallel is known to be synergistic but has not been clinically effective due to dose-limiting toxicities. A benefit of compressing perturbations is the ability to measure additive, antagonistic, and synergistic effects between drugs in the same pool. However, these effects can negatively impact deconvolution of individual drug effects. Therefore, combinations of drugs for which evidence of clinical toxicity exists can be assigned to different pools in accordance with an informed pooling operation. As new preclinical or clinical evidence of toxic combinations becomes available, the rules implemented by the screening platform 210—and more specifically, its algorithm for compressing members of a library—can be updated accordingly.
In SUM-based deconvolution, an assumption of additivity is used to quantify the individual effects of each perturbation on each target. Additivity implies that each perturbation effect on each target is positively contributing to the overall effect measured for that pool. This is an accurate assumption for certain experiments, such as when targets or samples are compressed. When targets are pooled—or when samples containing different targets are pooled—the effect of each perturbation on each individual target is diluted. In other words, each perturbation has an isolated effect on a target in culture, and the sum total of the isolated effects are measured when pooled. Therefore, SUM-based deconvolution breaks down the sum total measured for a pool and assigns estimated fractional effects to each compressed perturbation or target in the pool. The screening platform 210 used SUM-based deconvolution for all target and sample compression experiments described above.
As mentioned above, SUM-based deconvolution uses the overlapping pool design to identify relative relationships and ranges for the individual effects of each perturbation. When the overlapping pool design is not sufficient to solve for the polynomials representing perturbation effects, an anchor perturbation can be identified by the screening platform 210 based on rank order and assigned an effect size of zero. The anchor perturbation may be the lowest ranked perturbation in the rank order. This then enables the screening platform 210 to solve for the polynomials for the remaining perturbations.

For `COc1c(OCCCN2CCOCC2)ccc2c1N=C(NC(=O)c1cnc(N)nc1)N1CCN=C21` [Copanlisib], which DRS (MOLT-4) is on record?
Its DRS is 0.03.

What about the “DRS from MAX-based deconvolution” value (MOLT-4) of the same compound?
The value was 0.03.

And the DRS (REH [1])?
The DRS was 1.63.

What about the “DRS from MAX-based deconvolution” value (REH [1]) of the same compound?
Its value is 2.12.

What does the source list for `COc1cc2ncnc(Nc3ccc(F)c(Cl)c3)c2cc1OCCCN1CCOCC1` [Gefitinib]?
DRS, REH, SUM (REH [2]): 1.12; DRS (MOLT-4): 0.00; DRS from MAX-based deconvolution (MOLT-4): 0.00; DRS, MOLT-4, MAX (MOLT-4): 0.00; DRS (REH [1]): 0.00; DRS from MAX-based deconvolution (REH [1]): 0.00; DRS, REH, MAX (REH [1]): 4.06

For `N#Cc1ccnc(N2C(=O)CC[C@H]2C(=O)N(c2cncc(F)c2)[C@H](C(=O)NC2CC(F)(F)C2)c2ccccc2Cl)c1` [Ivosidenib], which DRS (MOLT-4) is on record?
Its DRS is 1.12.

And the “DRS from MAX-based deconvolution” value (MOLT-4)?
The value was 1.96.

And the DRS (REH [1])?
Its DRS is 3.12.

What about the “DRS from MAX-based deconvolution” value (REH [1]) of the same compound?
Its value is 3.55.

Which “DRS, REH, SUM” value (REH [2]) does the source give for `C=CC(=O)Nc1cc(Nc2nccc(-c3cn(C)c4ccccc34)n2)c(OC)cc1N(C)CCN(C)C` [Osimertinib] here?
Its value is 0.00.

What about the DRS (MOLT-4) of the same compound?
The DRS was 0.10.

What about the “DRS from MAX-based deconvolution” value (MOLT-4) of the same compound?
The value was 0.00.

And the “DRS, MOLT-4, MAX” value (MOLT-4)?
Its value is 0.00.

What about the DRS (REH [1]) of the same compound?
The DRS was 0.10.

And the “DRS from MAX-based deconvolution” value (REH [1])?
The value was 0.00.

And the “DRS, REH, MAX” value (REH [1])?
Its value is 0.00.

Which DRS (MOLT-4) does the source give for `Cc1[nH]c2ccccc2c1CCNCc1ccc(/C=C/C(=O)NO)cc1` [Panobinostat] here?
The DRS was 3.01.

What about the “DRS from MAX-based deconvolution” value (MOLT-4) of the same compound?
The value was 3.24.

What about the DRS (REH [1]) of the same compound?
The DRS was 3.01.

What about the “DRS from MAX-based deconvolution” value (REH [1]) of the same compound?
Its value is 3.96.

With `CC1(C)CCC(CN2CCN(c3ccc(C(=O)NS(=O)(=O)c4ccc(NCC5CCOCC5)c([N+](=O)[O-])c4)c(Oc4cnc5[nH]ccc5c4)c3)CC2)=C(c2ccc(Cl)cc2)C1` [Venetoclax] as the compound, how does the “DRS, REH, SUM” value (REH [2]) read?
The value was 5.50.

What about the DRS (MOLT-4) of the same compound?
The DRS was 3.37.

And the “DRS from MAX-based deconvolution” value (MOLT-4)?
The value was 3.88.

What about the “DRS, MOLT-4, MAX” value (MOLT-4) of the same compound?
Its value is 3.41.

And the DRS (REH [1])?
Its DRS is 4.37.

What about the “DRS from MAX-based deconvolution” value (REH [1]) of the same compound?
The value was 0.00.

What about the “DRS, REH, MAX” value (REH [1]) of the same compound?
Its value is 4.43.
